Measurements from patent publication US12728121B2, “Compositions and methods for treating idiopathic pulmonary fibrosis” (Seyltx, Inc., priority 2019, dated 2026).

Legend:
Assay type in all cases: in vivo, Mouse/C57BL/6
[1] = test system: BLM-induced fibrosis; assay: Bleomycin (BLM)-induced lung fibrosis in mice: Gomori's Trichrome score of lung sections; conditions: for Trichrome score (average) / % reduction in fibrosis: day 21; for Trichrome score (average): BLM 2.5 U/kg intratracheal, p.o. once daily 14 days from day 7, mg/kg: Pirfenidone 300, Bromantane 20, Ifenoprodil 30, Radiprodil 30, Bemithyl 200, Dexamethasone 0.25, Repirinast 90, Normal 1.00, Vehicle 4.59; for Trichrome score response versus BLM-vehicle group (in words) / percent reduction in lung fibrosis in comparison to the BLM-vehicle group (in words): doses as Table 1, order: Dexamethasone and Repirinast, followed by Ifenprodil and Radiprodil; for % reduction in fibrosis: from Trichrome scores relative to vehicle and normal groups, doses as Table 1, p.o. once daily 14 days; for improvement in lung fibrosis, loss of body weight, Trichrome score and mortality as compared to BLM-vehicle (conclusion, in words): oral administration, Dexamethasone 0.25, Repirinast 90, Ifenprodil 30, Radiprodil 30 mg/kg
Experimental: (§1) The mouse species or strain was Mouse/C57BL/6, the mice being 8-10 week old males. Nine groups of 10 mice each were obtained from Charles River Laboratories. Each group was randomized based on body weight. Bleomycin (BLM) was obtained from Euroasias.
(§2) The mice were anesthetized with isoflurane/O2 mixture. Bleomycin (BLM) was then administered to the mice intratracheally (PennCentury)—single bolus, at 2.5 U/kg body weight in 50 μl sterile saline.
(§3) Seven days after the bleomycin is administered, and fibroblasts have generally proliferated, six of the nine groups of IT bleomycin challenged mice were be dosed orally (p.o.) once a day with Bromantane, Ifenoprodil, Radiprodil, Bemithyl, Dexamethasone, or Repirinast at specified amounts per kg of body weight (mg/kg) daily for 14 consecutive days. The amounts are set out in Table 1 below. The vehicle used was 0.5% carboxymethyl cellulose (CMC). Prifenidone was also prepared in 0.5% CMC and administrated orally once a day to one of the nine IT bleomycin challenged mice groups beginning for 14 consecutive days. Vehicle and no-BLM control groups received 0.5% CMC orally for 14 consecutive days.
On day 21 of the study, 4 hours after the last dose, the mice were sacrificed and plasma was collected and frozen for cytokine analysis (testing for IL-6, IL-12, TGFβ, IL-13 proteins, or fibrosis markers). Bronchoalveolar lavage fluid (BALF) was collected and frozen for optional cytokine analyses and cell counts pending the initial data. The lungs were then excised, weighed and fixed in formalin. Gomori's Trichrome stain, a histological stain, was used to determine collagen content.
Trichrome Score: A trichrome score measures the level of scarring to the lungs caused by the disease. The greater the trichrome score, the greater the scarring.
Formalin fixed lung samples were submitted to affiliated histopathology laboratory for histopathological analysis subjected Gomori's Trichrome stain, a histological stain, which was used to determine collagen content.
Each lung was divided into ten sections. All ten sections were stained and evaluated. A board certified veterinarian pathologist assessed the presence of lung fibrosis and severity score—The expression of collagen (associated with fibrosis) is determined from the ratio of the stained area versus the total area of the lung section.

[2] = test system: BLM-induced fibrosis; assay: Bleomycin (BLM)-induced lung fibrosis in mice: mortality rate over 21 days; conditions: doses as Table 1; for Fatality Number: deaths/mice per group over 21 days, Vehicle 2/10; for percent survival (in words): order: Dexamethasone and Repirinast, followed by Ifenprodil and Radiprodil; for Percent Fatality: over 21 days, Vehicle 20%
Experimental: as §1, §2, §3
Mortality Rate: the mortality rate in each group was also observed over 21 days.

[3] = Bleomycin (BLM)-induced lung fibrosis in mice: body weight over 21 days; conditions: for Percent Change in Body Weight / Body Weight: doses as Table 1; for Body Weight: group mean; for changes in body weight as compared to the BLM-vehicle group (in words): doses as Table 1, p.o. once daily
Experimental: as §1, §2, §3
Body Weight: The body weights were measured over 21 days using a laboratory balance.

SMILES | Trichrome score (average) [1] | % reduction in fibrosis [1] [%] | Fatality Number [2] | Percent Fatality [2] [%] | Percent Change in Body Weight ([3]; 7-Nov) [%] | Body Weight ([3]; 7-Nov) [g] | Percent Change in Body Weight ([3]; 8-Nov) [%] | Body Weight ([3]; 8-Nov) [g] | Percent Change in Body Weight ([3]; 9-Nov) [%] | Body Weight ([3]; 9-Nov) [g] | Percent Change in Body Weight ([3]; 12-Nov) [%] | Body Weight ([3]; 12-Nov) [g] | Percent Change in Body Weight ([3]; 14-Nov) [%] | Body Weight ([3]; 14-Nov) [g] | Percent Change in Body Weight ([3]; 16-Nov) [%] | Body Weight ([3]; 16-Nov) [g] | Percent Change in Body Weight ([3]; 20-Nov) [%] | Body Weight ([3]; 20-Nov) [g] | Percent Change in Body Weight ([3]; 22-Nov) [%] | Body Weight ([3]; 22-Nov) [g] | other results
C[C@@H]([C@H](O)c1ccc(O)cc1)N1CCC(Cc2ccccc2)CC1 (stereo in doubt) [Ifenoprodil, 4-[2-(4-benzylpiperidin-1-ium-1-yl)-1-hydroxypropyl] phenol; 2,3,4-trihydroxy-4-oxobutanoate] | 3.37 | 34.0 | 0/10 | 0 | 0.0 | 24.4 | −0.1 | 24.3 | −0.3 | 24.1 | −2.0 | 22.4 | −1.3 | 23.1 | −0.8 | 23.6 | −0.3 | 24.1 | 0.5 | 24.9 | Trichrome score response versus BLM-vehicle group (in words) [1]: response was better; percent reduction in lung fibrosis in comparison to the BLM-vehicle group (in words) [1]: higher; improvement in lung fibrosis, loss of body weight, Trichrome score and mortality as compared to BLM-vehicle (conclusion, in words) [1]: showed improvement; percent survival (in words) [2]: higher; Percent Change in Body Weight ([3]; 26-Nov): 0.2%; Body Weight ([3]; 26-Nov): 24.6 g; Percent Change in Body Weight ([3]; 28-Nov): 0.7%; Body Weight ([3]; 28-Nov): 25.1 g; changes in body weight as compared to the BLM-vehicle group (in words) [3]: showed improvement beginning on Day 5
CCSc1nc2ccccc2[nH]1 [Bemithyl, 2-Ethylsulfanyl-1H-benzoimidazole] | 4.14 | 12.5 | 1/10 | 10 | 0.0 | 24.6 | 0.0 | 24.7 | −0.6 | 24.1 | −1.6 | 23.0 | −1.1 | 23.5 | −1.7 | 22.9 | −1.6 | 23.1 | −0.6 | 24.0 | Percent Change in Body Weight ([3]; 26-Nov): −0.9%; Body Weight ([3]; 26-Nov): 23.7 g; Percent Change in Body Weight ([3]; 28-Nov): −0.3%; Body Weight ([3]; 28-Nov): 24.3 g; changes in body weight as compared to the BLM-vehicle group (in words) [3]: showed improvement beginning on Day 5
Brc1ccc(NC2C3CC4CC(C3)CC2C4)cc1 (stereo not drawn) [Bromantane, N-(4-bromophenyl)adamantan-2-amine] | 4.00 | 16.4 | 3/10 | 30 | 0.0 | 24.8 | −0.1 | 24.7 | −0.8 | 24.0 | −1.8 | 23.1 | −1.1 | 23.7 | −1.5 | 23.3 | −1.9 | 22.9 | −1.6 | 23.2 | Percent Change in Body Weight ([3]; 26-Nov): −1.0%; Body Weight ([3]; 26-Nov): 23.8 g; Percent Change in Body Weight ([3]; 28-Nov): 0.4%; Body Weight ([3]; 28-Nov): 25.2 g; changes in body weight as compared to the BLM-vehicle group (in words) [3]: showed improvement beginning Day 5, with the exception of Day 15
C[C@@H]1C[C@H]2[C@@H]3CCC4=CC(=O)C=C[C@]4(C)[C@@]3(F)[C@@H](O)C[C@]2(C)[C@@]1(O)C(=O)CO [Dexamethasone] | 2.45 | 59.6 | 2/10 | 20 | 0.0 | 24.3 | −0.2 | 24.1 | −0.6 | 23.7 | −1.9 | 22.4 | −1.6 | 22.7 | −0.9 | 23.4 | −1.5 | 22.7 | −0.1 | 24.2 | Trichrome score response versus BLM-vehicle group (in words) [1]: response was better; percent reduction in lung fibrosis in comparison to the BLM-vehicle group (in words) [1]: higher; improvement in lung fibrosis, loss of body weight, Trichrome score and mortality as compared to BLM-vehicle (conclusion, in words) [1]: showed improvement; percent survival (in words) [2]: higher; Percent Change in Body Weight ([3]; 26-Nov): 0.3%; Body Weight ([3]; 26-Nov): 24.5 g; Percent Change in Body Weight ([3]; 28-Nov): 0.7%; Body Weight ([3]; 28-Nov): 25.0 g; changes in body weight as compared to the BLM-vehicle group (in words) [3]: showed improvement beginning on Day 5
Cc1ccc(=O)n(-c2ccccc2)c1 [Pirfenidone (+), 5-methyl-1-phenylpyridin-2(1H)-one] | 4.09 | 13.9 | 2/10 | 20 | 0.0 | 24.0 | 0.3 | 24.2 | −0.5 | 23.5 | −2.2 | 21.7 | −2.9 | 21.0 | −3.2 | 20.8 | −3.7 | 20.3 | −2.9 | 21.1 | Trichrome score response versus BLM-vehicle group (in words) [1]: minimal improvement; Percent Change in Body Weight ([3]; 26-Nov): −3.1%; Body Weight ([3]; 26-Nov): 20.9 g; Percent Change in Body Weight ([3]; 28-Nov): −3.2%; Body Weight ([3]; 28-Nov): 20.7 g
O=C(Nc1ccc2[nH]c(=O)oc2c1)C(=O)N1CCC(Cc2ccc(F)cc2)CC1 [Radiprodil, 2-[4-[(4-fluorophenyl)methyl]piperidin-1-yl]-2-oxo-N-(2-oxo-3H-1,3-benzoxazol-6-yl)acetamide] | 3.45 | 31.8 | 2/10 | 20 | 0.0 | 23.6 | 0.0 | 23.6 | −0.4 | 23.2 | −2.3 | 21.3 | −1.8 | 21.8 | −1.0 | 22.6 | −1.2 | 22.4 | −0.3 | 23.3 | Trichrome score response versus BLM-vehicle group (in words) [1]: response was better; percent reduction in lung fibrosis in comparison to the BLM-vehicle group (in words) [1]: higher; improvement in lung fibrosis, loss of body weight, Trichrome score and mortality as compared to BLM-vehicle (conclusion, in words) [1]: showed improvement; percent survival (in words) [2]: higher; Percent Change in Body Weight ([3]; 26-Nov): 0.3%; Body Weight ([3]; 26-Nov): 24.0 g; Percent Change in Body Weight ([3]; 28-Nov): 0.4%; Body Weight ([3]; 28-Nov): 24.0 g; changes in body weight as compared to the BLM-vehicle group (in words) [3]: showed improvement beginning on Day 5
